Assay results: patent publication US11447472B2, “Polymorophs of 5-aza-4′-thio-2′-deoxycytidine” (Southern Research Institute, priority 2020, dated 2022)
Like-named read-outs stand apart in the source and are kept apart here. One block for each compound: values may come before it.

Tests used:
[1] = Physical stability of solid forms under accelerated aging conditions (AAC, 25° C./60% RH, two days), HT-XRPD; conditions: for AAC (form found after storage): Table 4, storage at 25° C., 60% relative humidity; for conversion after storage at 25° C., 60% relative humidity: two days
Protocol: All solids were exposed to accelerated aging conditions (2 days at 25° C./60% RH) and re-analyzed by HT-XRPD.
Subsequently, the solids were placed at 25° C./60% RH for two days (AAC) and re-analyzed by XRPD.
Subsequently, all solids were exposed to accelerated aging conditions for two days (AAC, 25° C./60% RH) and re-analyzed by HT-XRPD.
Subsequently, all the solids were exposed to accelerated aging conditions (25° C./60% RH) for two days and re-analyzed by HT-XRPD.
All solids were then exposed to accelerated aging conditions (2 days at 25° C./60% RH) followed by HT-XRPD re-analysis.
Subsequently, all solids were exposed to accelerated aging conditions (2 days at 25° C./60% RH) and re-analyzed by HT-XRPD.
Subsequently, all solids were exposed to accelerated aging conditions (25° C./60% RH) for two days and then re-analyzed by HT-XRPD.

[2] = in vivo, 2 mg/kg
[3] = Dissolution rate (IDR) at pH 1.2, 6.5 and 5.0; type: physicochemical
in vivo = conditions: male, SD, rat, 2 mg/kg; for concentration at 0.25 h / concentration at 0.5 h / concentration at 1 h / concentration at 2 h / concentration at 4 h / concentration at 6 h / concentration at 8 h / concentration at 24 h: Concentration (plasma); for AUC(0-inf) / AUC(0-t) / Cmax / MRT inf / half-life / Tmax: po; for AUC(0-inf): AUCInf; for AUC(0-t): AUClast; for MRT inf: MRTInf_obs

Structure (SMILES): Nc1ncn([C@H]2C[C@H](O)[C@@H](CO)S2)c(=O)n1 [Form E, 5-Aza-4′-thio-2′-deoxycytidine]
AAC (form found after storage) ([1]; sample obtained by ECP from DMA/TBME (80/20, v/v)): A + F
conversion after storage at 25° C., 60% relative humidity ([1]; text): converts to Form A
conversion after storage at 25° C., 60% relative humidity ([1]; text, listed as E): convert to Form A

Structure (SMILES): Nc1ncn([C@H]2C[C@H](O)[C@@H](CO)S2)c(=O)n1 [Form I, 5-Aza-4′-thio-2′-deoxycytidine]
conversion after storage at 25° C., 60% relative humidity ([1]; text): converts to Form A
conversion after storage at 25° C., 60% relative humidity ([1]; text, listed as I): convert to Form A

Structure (SMILES): Nc1ncn([C@H]2C[C@H](O)[C@@H](CO)S2)c(=O)n1 [A + D2, 5-Aza-4′-thio-2′-deoxycytidine]
AAC (form found after storage) ([1]; sample obtained by ECP from MeOH): A + L

Structure (SMILES): Nc1ncn([C@H]2C[C@H](O)[C@@H](CO)S2)c(=O)n1 [Form J, 5-Aza-4′-thio-2′-deoxycytidine]
conversion after storage at 25° C., 60% relative humidity ([1]; text): converts to Form A
conversion after storage at 25° C., 60% relative humidity ([1]; text, listed as J): convert to Form A

Structure (SMILES): Nc1ncn([C@H]2C[C@H](O)[C@@H](CO)S2)c(=O)n1 [Form B, 5-Aza-4′-thio-2′-deoxycytidine]
physical stability ([1]; in words): physically unstable
conversion after storage at 25° C., 60% relative humidity ([1]; text): converted to Form A
conversion after storage at 25° C., 60% relative humidity ([1]; text, listed as B): convert to Form A

Structure (SMILES): Nc1ncn([C@H]2C[C@H](O)[C@@H](CO)S2)c(=O)n1 [Form F, 5-Aza-4′-thio-2′-deoxycytidine]
Concentration (plasma), individual rat ([2]; male, SD, 0.25 h): 394 ng/mL
Concentration (plasma), individual rat ([2]; male, SD, 0.5 h): 780 ng/mL
Concentration (plasma), individual rat ([2]; male, SD, 1 h): 982 ng/mL
Concentration (plasma), individual rat ([2]; male, SD, 2 h): 764 ng/mL
Concentration (plasma), individual rat ([2]; male, SD, 4 h): 377 ng/mL
Concentration (plasma), individual rat ([2]; male, SD, 6 h): 285 ng/mL
Concentration (plasma), individual rat ([2]; male, SD, 8 h): 199 ng/mL
Concentration (plasma), individual rat ([2]; male, SD, 24 h): 3.81 ng/mL
AUCInf, individual rat ([2]; male, SD, po): 5435 ng·h/mL
AUClast, individual rat ([2]; male, SD, po): 5419 ng·h/mL
Cmax, individual rat ([2]; male, SD, po): 982 ng/mL
MRTInf_obs, individual rat ([2]; male, SD, po): 4.63 h
T1/2, individual rat ([2]; male, SD, po): 2.86 h
AUC values higher than SM ([2]; male, SD, rat): about 30%
AUC_%Extrap_obs, Mean ([2]; male, SD, rat): 0.402%
AUClast/D, Mean ([2]; male, SD, rat): 2900 ng·h/mL per mg/kg
Cmax value relative to SM ([2]; rat): about 1.4 times
IDR ([3]; FaSSIF, pH 6.5): 2.7 ± 0.05 mg/mL/Cm^2/min
IDR ([3]; FeSSIF, pH 5.0): 6.0 ± 0.70 mg/mL/Cm^2/min
IDR ([3]; SGF, pH 1.2): 7.0 ± 1.26 mg/mL/Cm^2/min
concentration at 0.25 h (in vivo; Mean): 310 ng/mL
concentration at 0.5 h (in vivo; Mean): 768 ng/mL
concentration at 1 h (in vivo; Mean): 934 ng/mL
concentration at 2 h (in vivo; Mean): 755 ng/mL
concentration at 4 h (in vivo; Mean): 457 ng/mL
concentration at 6 h (in vivo; Mean): 324 ng/mL
concentration at 8 h (in vivo; Mean): 222 ng/mL
concentration at 24 h (in vivo; Mean): 5.43 ng/mL
concentration at 0.25 h (in vivo; individual rat): 225 ng/mL
concentration at 0.5 h (in vivo; individual rat): 755 ng/mL
concentration at 1 h (in vivo; individual rat): 886 ng/mL
concentration at 2 h (in vivo; individual rat): 746 ng/mL
concentration at 4 h (in vivo; individual rat): 536 ng/mL
concentration at 6 h (in vivo; individual rat): 362 ng/mL
concentration at 8 h (in vivo; individual rat): 245 ng/mL
concentration at 24 h (in vivo; individual rat): 7.04 ng/mL
AUC(0-inf) (in vivo; Mean): 5820 ng·h/mL
AUC(0-inf) (in vivo; individual rat): 6210 ng·h/mL
AUC(0-t) (in vivo; Mean): 5800 ng·h/mL
AUC(0-t) (in vivo; individual rat): 6180 ng·h/mL
Cmax (in vivo; Mean): 934 ng/mL
Cmax (in vivo; individual rat): 886 ng/mL
MRT inf (in vivo; Mean): 4.86 h
MRT inf (in vivo; individual rat): 5.09 h
half-life (in vivo; T1/2, Mean): 180 min
half-life (in vivo; T1/2, individual rat): 189 min
Tmax (in vivo; Mean): 1 h
Tmax (in vivo; individual rat): 1 h

Structure (SMILES): Nc1ncn([C@H]2C[C@H](O)[C@@H](CO)S2)c(=O)n1 [Form H, 5-Aza-4′-thio-2′-deoxycytidine]
AAC (form found after storage) ([1]; sample from the method/solvent of that table row): F + H
conversion after storage at 25° C., 60% relative humidity [1]: convert to Form A
conversion of the form ([1]; when obtained from NMP): converted to Form F
conversion of the form ([1]; when obtained from other solvents): converted to Form A

Structure (SMILES): Nc1ncn([C@H]2C[C@H](O)[C@@H](CO)S2)c(=O)n1 [Form K, 5-Aza-4′-thio-2′-deoxycytidine]
conversion after storage at 25° C., 60% relative humidity ([1]; text): converted to Form F
conversion after storage at 25° C., 60% relative humidity ([1]; text, listed as K): convert to Form A

Structure (SMILES): Nc1ncn([C@H]2C[C@H](O)[C@@H](CO)S2)c(=O)n1 [Form C2, 5-Aza-4′-thio-2′-deoxycytidine]
conversion after storage at 25° C., 60% relative humidity ([1]; text, listed as C2): convert to Form A

The remaining lines, values ahead:

conversion after storage at 25° C., 60% relative humidity ([1]; text, listed as D2): convert to Form A
Structure (SMILES): Nc1ncn([C@H]2C[C@H](O)[C@@H](CO)S2)c(=O)n1 [Form D2, 5-Aza-4′-thio-2′-deoxycytidine]

conversion after storage at 25° C., 60% relative humidity ([1]; text): convert to Form A
conversion after storage at 25° C., 60% relative humidity ([1]; text, listed as G2): convert to Form A
Structure (SMILES): Nc1ncn([C@H]2C[C@H](O)[C@@H](CO)S2)c(=O)n1 [Form G2, 5-Aza-4′-thio-2′-deoxycytidine]

conversion after storage at 25° C., 60% relative humidity ([1]; text): convert to Form A
conversion after storage at 25° C., 60% relative humidity ([1]; text, listed as G1): convert to Form A
Structure (SMILES): Nc1ncn([C@H]2C[C@H](O)[C@@H](CO)S2)c(=O)n1 [Form G1, 5-Aza-4′-thio-2′-deoxycytidine]
